We go through one compound from BindingDB's records for doi:10.1021/jm00129a003 (Abbott Laboratories, 1989).

Usually Kd stands for the constant that tells how readily two partners part at equilibrium. Low values mean tighter binding, high ones weaker binding.

For assay [1], the target named is T1, Gonadotropin-releasing hormone receptor (Rattus norvegicus, UniProt P30969).
T1 sequence (P30969 whole entry): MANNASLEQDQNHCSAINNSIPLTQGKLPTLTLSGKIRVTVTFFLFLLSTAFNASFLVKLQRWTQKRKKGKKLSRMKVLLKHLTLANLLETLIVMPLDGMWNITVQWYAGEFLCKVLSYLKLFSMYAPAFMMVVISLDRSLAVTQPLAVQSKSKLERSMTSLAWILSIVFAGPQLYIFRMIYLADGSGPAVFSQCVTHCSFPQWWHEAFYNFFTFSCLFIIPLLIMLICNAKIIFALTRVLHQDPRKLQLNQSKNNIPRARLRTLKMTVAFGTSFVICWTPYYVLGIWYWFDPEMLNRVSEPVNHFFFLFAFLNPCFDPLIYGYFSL
The assay is described as follows: Dissociation constant was determined in vitro using rat pituitary membranes, at concentration 1.0*10e-5 M.

In assay [2] the target is T1, Gonadotropin-releasing hormone receptor. The assay is described as follows: Dissociation constant was determined in vitro using rat pituitary membranes and [125I]-leuprolide as radioligand, at concentration 3.16*10e-6 M.

For `CC(=O)N1CCN(c2ccc(OC[C@@H]3CO[C@@](Cn4ccnc4)(c4ccc(Cl)cc4Cl)O3)cc2)CC1` [Nizoral], the Kd in assay [1] is 375 nM; in assay [2], 221 nM.
